Laboratory results: publication PMC8675330 (Frontiers in Pharmacology, 2021)
Structures can show the parent of a compound that is named as a salt. Where two headings read alike, the source gives them in different places. Marks after values point to notes of the source that are not given here.

Tests used:
[1] = In vivo pharmacokinetics in plasma, brain and lung after IV, IN and IN + BorNLC co-administration; set-up: species or system CD-1 mice; conditions: for Cmax / Tmax / Kp / AUC(0-t): CD-1, mouse
Method: Healthy adult CD-1 mice (25–30 g) were acquired from Charles River Laboratories (L’Arbresle, France) and accommodated in a relative humidity of 55 ± 5%, a controlled temperature of 20 ± 2°C, and reversed 12 h light–dark cycles. The studies were always performed in the dark phase (active phase between 08h00 and 20h00). A period of at least 7 days was considered for the animals to become familiarized with the environment. Animals had ad libitum access to food (4RF21, Mucedola®, Italy) and tap water during the entire experiment period.
Before treatment, animals were anesthetized by intraperitoneal administration of a mixture of ketamine (100 mg/kg) and xylazine (10 mg/kg) to keep them immobile during IN or IV administration. Animals were randomly divided into 3 groups (n = 28) and subdivided into 7 time-points (n = 4). […] Briefly, Pluronic F-127 (18%, w/v) and Carbopol 974P (0.2%, w/v) were added to cold water, since the first guarantees the thermoreversible characteristic of the nasal gel ([Swamy and Abbas, 2012]) and the second increases the bioadhesive properties of the gel, thus increasing the residence time in the nasal cavity and improving the central delivery of antidepressant drugs. […] Anesthetized animals were instilled with 14–25 µl (2.38 mg/kg) of the gel with a polyurethane tube (24G x 19 mm) attached to a microliter syringe. Formulation delivery was performed into one of the nostrils, where the tube was inserted about 10 mm deep.
Animals were sacrificed by cervical dislocation and decapitation at 5, 15, 30, 60, 120, 240, and 480 min after administration, and heparinized tubes were used for blood collection. Blood samples were centrifuged at 1,252 g for 10 min at 4°C, and plasma supernatants were analyzed by HPLC-DAD. The mice brain and lungs were quickly removed and gently cleaned with a sterile gauze humidified with saline to remove adherent surface blood. Then, these organs were weighed and homogenized in NaCl 0.9% (3 ml/g of tissue) using a tissue homogenizer with a Teflon® pestle from Thomas Scientific (Swedesboro, NJ, United States).
Briefly, 300 μl of methanol were added to 200 μl of plasma, 200 μl of lung homogenate, or 400 μl of brain homogenate for protein precipitation. After two extractions with 700 μl of n-hexane:alcohol isoamyl (98:2, v/v) mixture, organic phases were evaporated. Last, following reconstitution with 100 μl of a mixture of 20 mM phosphate buffer pH 3.8 and acetonitrile (70:30, v/v), the plasma and lung homogenate samples were transferred to a 0.22-μm Costar® Spin-X® centrifugal filter (Corning, Inc., NY, United States) and centrifuged at 12,100 g for 3 min. All final samples were injected (20 µl) into the HPLC-DAD system, in accordance with the analytical conditions described in section 2.2.1. The detection wavelength to quantify the IS was set at 290 nm.
The remaining pharmacokinetic parameters were estimated by non-compartmental analysis using WinNonlin® version 6.4 software (Certara, Princeton, NJ). Plasma and tissue concentrations below the lower limit of quantification (LLOQ) of the analytical method were considered zero for the pharmacokinetic data analysis.
For both drugs and in all matrices, the area under the concentration–time curve from time zero (AUC) to the time of the last measurable drug concentration (AUCt) was calculated by the linear trapezoidal rule.
To evaluate drug distribution into the brain and lungs after administration, the ratios were determined based on the quotient AUCt(tissue)/AUCt(plasma). The drug targeting efficiency (DTE) was calculated following Eq. 6: DTE(%)=(AUCt(brain)/AUCt(plasma))IN/(AUCt(brain)/AUCt(plasma))IV×100 (6)
Finally, to evaluate the direct drug passage from the nose to the brain, the direct transport percentage (DTP) was determined applying Eq. 7: DTP(%)=AUCt(brain) IN−[(AUCt(brain) IV/AUCt(plasma) IV)×AUCt(plasma) IN]/AUCbrain IN×100 (7)

[2] = Solubility of escitalopram and paroxetine in liquid lipids; assay type: physicochemical; conditions: 24 h stirring at 25°C, n = 3, mean ± SD; for solubility at 24 h: oil or lipid, thermodynamic from solid
Method: Briefly, 0.5 g of solid lipid Precirol® ATO 5 was melted in a controlled temperature water bath at 65°C. […] Regarding liquid lipids (oleic acid, Labrasol®, Labrafac™ PG, Lauroglycol™ 90, and Miglyol® 812 N), both drugs were dispersed in screw-capped tubes with the liquid compounds (0.5 ml each) and kept under mechanical stirring for 24 h at 25°C. […] An aliquot of the supernatant was diluted with the mobile phase, filtered through a 0.22-µm membrane, and analyzed. […] The HPLC-DAD apparatus and data acquisition were controlled by using Lab Solutions Software (Shimadzu Corporation, Tokyo, Japan). […] The mobile phase was composed of 20 mM phosphate buffer (pH 3.8 adjusted with orthophosphoric acid) and acetonitrile (80:20, v/v) pumped at a flow rate of 1.0 ml/min.

[3] = set-up: method as in Kreilgaard et al., 2008; conditions: single subcutaneous injection, three doses (escitalopram 0.240-3.90 mg/kg; paroxetine 0.270-4.40 mg/kg); ref Kreilgaard et al., 2008; cited from earlier work
P-glycoprotein (P-gp) = conditions: cited from earlier work
[4] = significant first-pass metabolism; no reference given; cited from earlier work
[5] = brain, inhaled or intranasal, 2.38 mg/kg
[6] = lung, inhaled or intranasal, 2.38 mg/kg
[7] = plasma, inhaled or intranasal, 2.38 mg/kg
[8] = Lauroglycol 90 (liquid lipid), in Lauroglycol 90
[9] = oleic acid (liquid lipid), in oleic acid
[10] = inhaled or intranasal, paroxetine, brain, IN free drug, 2.38 mg/kg
[11] = inhaled or intranasal, paroxetine, lung, IN free drug, 2.38 mg/kg
[12] = inhaled or intranasal, paroxetine, plasma, IN free drug, 2.38 mg/kg
[13] = paroxetine, brain, IV free drug, 2.38 mg/kg
[14] = paroxetine, lung, IV free drug, 2.38 mg/kg
[15] = paroxetine, plasma, IV free drug, 2.38 mg/kg
[16] = paroxetine, IN free drug vs IV, 2.38 mg/kg

CN(C)CCC[C@@]1(c2ccc(F)cc2)OCc2cc(C#N)ccc21 [Escitalopram, escitalopram oxalate]
Cmax [1, 5]: 133 ng/g
Tmax [1, 5]: 60 min
Cmax ([1]; brain, iv, 2.38 mg/kg): 511 ng/g
Tmax ([1]; brain, iv, 2.38 mg/kg): 15 min
Kp ([1]; brain/plasma, iv, 2.38 mg/kg, read-out: AUCtbrain/AUCtplasma): 0.871
Kp ([1]; brain/plasma, other: intranasal (IN), 2.38 mg/kg, read-out: AUCtbrain/AUCtplasma): 0.86
Cmax [1, 6]: 2310 ng/g
Tmax [1, 6]: 30 min
Cmax ([1]; lung, iv, 2.38 mg/kg): 1020 ng/g
Tmax ([1]; lung, iv, 2.38 mg/kg): 60 min
Kp ([1]; lung/plasma, iv, 2.38 mg/kg, read-out: AUCtlung/AUCtplasma): 2.45
Kp ([1]; lung/plasma, other: intranasal (IN), 2.38 mg/kg, read-out: AUCtlung/AUCtplasma): 10.6
AUC(0-t) [1, 7]: 507 ng·h/mL
Cmax [1, 7]: 550 ng/mL
Tmax [1, 7]: 5 min
AUC(0-t) ([1]; plasma, iv, 2.38 mg/kg): 1150 ng·h/mL
Cmax ([1]; plasma, iv, 2.38 mg/kg): 482 ng/mL
Tmax ([1]; plasma, iv, 2.38 mg/kg): 5 min
AUCt ([1]; escitalopram, brain, IN free drug, 2.38 mg/kg): 26.2 ^c µg.min/g
AUCt ([1]; escitalopram, brain, IV free drug, 2.38 mg/kg): 59.8 ^c µg.min/g
AUCt ([1]; escitalopram, lung, IN free drug, 2.38 mg/kg): 321 ^c µg.min/g
AUCt ([1]; escitalopram, lung, IN free drug, 2.38 mg/kg, listed as escitalopram): 168 µg·min/g
AUCt ([1]; escitalopram, lung, IV free drug, 2.38 mg/kg): 168 ^c µg.min/g
AUCt ([1]; escitalopram, lung, IV free drug, 2.38 mg/kg, listed as escitalopram): 321 µg·min/g
lung Cmax after free drug IN administration, times superior to BorNLC IN ([1]; escitalopram, lung, free IN vs BorNLC IN): 3.8 times
lung Cmax after free drug IN administration, times superior to IV ([1]; escitalopram, lung, free IN vs IV): 2.3 times
solubility at 24 h ([2]; Labrafac PG (liquid lipid), in Labrafac PG, n.d. = not detected): 1340 ± 1120 µg/mL
solubility at 24 h ([2]; Labrasol (liquid lipid), in Labrasol): 14700 ± 14000 µg/mL
solubility at 24 h [2, 8]: 6910 ± 130 µg/mL
solubility at 24 h [2, 9]: 840 ± 120 µg/mL
tmax in the plasma [3]: 3.00 to 5.40 min

Fc1ccc([C@@H]2CCNC[C@H]2COc2ccc3c(c2)OCO3)cc1 [Paroxetine, Paroxetine hydrochloride]
Kp ([1]; brain/plasma, iv, 2.38 mg/kg, paroxetine, IV free drug, 2.38 mg/kg, read-out: AUCtbrain/AUCtplasma): 0.35
Kp ([1]; brain/plasma, other: intranasal (IN), 2.38 mg/kg, paroxetine, IN free drug, 2.38 mg/kg, read-out: AUCtbrain/AUCtplasma): 0.82
Cmax [1, 10]: 283 ng/g
Tmax [1, 10]: 120 min
Cmax [1, 11]: 2820 ng/g
Tmax [1, 11]: 60 min
AUC(0-t) [1, 12]: 1390 ng·h/mL
Cmax [1, 12]: 696 ng/mL
Kp ([1]; lung/plasma, iv, 2.38 mg/kg, paroxetine, IV free drug, 2.38 mg/kg, read-out: AUCtlung/AUCtplasma): 2.63
Kp ([1]; lung/plasma, other: intranasal, 2.38 mg/kg, paroxetine, IN free drug, 2.38 mg/kg, read-out: AUCtlung/AUCtplasma): 8.4
Tmax [1, 7]: 5 min
Tmax ([1]; plasma, iv, 2.38 mg/kg): 5 min
Cmax [1, 13]: 233 ng/g
Tmax [1, 13]: 120 min
Cmax [1, 14]: 1010 ng/g
Tmax [1, 14]: 30 min
AUC(0-t) [1, 15]: 1630 ng·h/mL
Cmax [1, 15]: 820 ng/mL
DTE (drug targeting efficiency) [1, 16]: 232%
DTP (direct transport percentage) [1, 16]: 56.9%
AUCtbrain/AUCtplasma ([1]; paroxetine, IN free drug, 2.38 mg/kg): 0.821
AUCtbrain/AUCtplasma ([1]; paroxetine, IV free drug, 2.38 mg/kg): 0.354
AUCt ([1]; paroxetine, brain, IN free drug, 2.38 mg/kg): 68.2 ^c µg min/g
higher brain exposure (given by AUCt) than that of IV injection ([1]; paroxetine, brain, IN vs IV): 49%
AUCt [1, 13]: 34.6 ^c µg min/g
AUCt ([1]; paroxetine, lung, IN free drug, 2.38 mg/kg): 699 ^c µg min/g
AUCt [1, 14]: 257 ^c µg min/g
P-gp IC50 relative to therapeutic plasma concentrations (P-glycoprotein (P-gp); IC50 higher than therapeutic plasma concentrations, ref Hiemke et al., 2018): about 150 fold
P-gp inhibition IC50 (P-glycoprotein (P-gp); in vitro, ref Feng et al., 2008): 10 µg/mL
solubility at 24 h [2, 8]: 13800 ± 1260 µg/mL
solubility ([2]; in Labrasol): 24000 ± 30500 µg/mL
solubility at 24 h [2, 9]: 1070 ± 580 µg/mL
tmax in the plasma [3]: 4.80 to 5.40 min
oral bioavailability [4]: 30 to 60%
